According to ChEMBL document CHEMBL1201862, “PubChem BioAssay data set” (2004):
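Interpolation was linear, between the two tested concentrations surrounding the appropriate level; five concentrations were tested over 48 hours in 96-well plates. GI50 marks 50% less growth.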 Activity calls are given as the source filed them. Cut-off read from the data, not from the text of the source: active = GI50 up to about 1.1 µM and inactive = higher.

What was measured:
Test in all cases: DTP human tumour cell line panel, 48 h
[1] = tested on: 786-0
[2] = tested on: A498
[3] = tested on: A549
[4] = tested on: ACHN
[5] = tested on: CAKI-1
[6] = tested on: CCRF-CEM
[7] = tested on: COLO 205
[8] = tested on: DMS-114
[9] = tested on: DMS-273
[10] = tested on: EKVX
[11] = tested on: HCC 2998
[12] = tested on: HCT-116
[13] = tested on: HCT-15
[14] = tested on: HL-60
[15] = tested on: HOP-18
[16] = tested on: HOP-62
[17] = tested on: HOP-92
[18] = tested on: HT-29
[19] = tested on: IGROV-1
[20] = tested on: K562
[21] = tested on: KM-20L2
[22] = tested on: KM12
[23] = tested on: LOX IMVI
[24] = tested on: LXFL 529
[25] = tested on: M14
[26] = tested on: M19-MEL
[27] = tested on: MOLT-4
[28] = tested on: Malme-3M
[29] = tested on: NCI-H226
[30] = tested on: NCI-H23
[31] = tested on: NCI-H460
[32] = tested on: NCI-H522
[33] = tested on: OVCAR-3
[34] = tested on: OVCAR-4
[35] = tested on: OVCAR-5
[36] = tested on: OVCAR-8
[37] = tested on: RPMI-8226
[38] = tested on: RXF 393
[39] = tested on: SF-268
[40] = tested on: SF-295
[41] = tested on: SF-539
[42] = tested on: SK-MEL-28
[43] = tested on: SK-MEL-2
[44] = tested on: SK-MEL-5
[45] = tested on: SK-OV-3
[46] = tested on: SN12C
[47] = tested on: SNB-19
[48] = tested on: SNB-75
[49] = tested on: SNB-78
[50] = tested on: SR
[51] = tested on: SW-620
[52] = tested on: TK-10
[53] = tested on: U-251
[54] = tested on: UACC-257
[55] = tested on: UACC-62
[56] = tested on: UO-31
[57] = tested on: DLD-1

Measured: GI50

O=c1c2c(-c3ccccc3)c3ccccc3nc2cnn1-c1ccccc1
> 100 µM: [13]
inactive: [1] > 100 µM | [2] > 100 µM | [3] > 100 µM | [4] > 100 µM | [5] > 100 µM | [6] 81.7 µM | [7] 67 µM | [8] 57.1 µM | [9] > 100 µM | [10] > 100 µM | [11] > 100 µM | [12] > 100 µM | [14] 29.4 µM | [15] > 100 µM | [16] > 100 µM | [17] > 100 µM | [18] 70.3 µM | [19] > 100 µM | [20] 42.3 µM | [21] > 100 µM | [22] 90.6 µM | [23] > 100 µM | [24] > 100 µM | [25] > 100 µM | [26] > 100 µM | [27] 96.2 µM | [28] > 100 µM | [29] > 100 µM | [30] > 100 µM | [31] > 100 µM | [32] 26.7 µM | [33] 55.5 µM | [34] > 100 µM | [35] > 100 µM | [36] > 100 µM | [37] > 100 µM | [38] > 100 µM | [39] > 100 µM | [40] > 100 µM | [41] > 100 µM | [42] > 100 µM | [43] > 100 µM | [44] > 100 µM | [45] > 100 µM | [46] > 100 µM | [47] > 100 µM | [48] > 100 µM | [49] > 100 µM | [50] 33.2 µM | [51] 91.4 µM | [52] > 100 µM | [53] > 100 µM | [54] > 100 µM | [55] > 100 µM | [56] > 100 µM

CCCCCCN(CCCCCC)C(=O)Cc1c2n(c3ccccc13)Cc1ccccc1-2
37.4 µM: [13]
inactive: [1] 85.1 µM | [3] 52.8 µM | [4] 50.2 µM | [5] > 100 µM | [6] 28.1 µM | [7] 58.5 µM | [57] 33.7 µM | [8] 28.6 µM | [9] 36.9 µM | [10] 69.8 µM | [11] 53.7 µM | [12] 29.6 µM | [14] 19.8 µM | [15] > 100 µM | [16] 86.7 µM | [17] 10.6 µM | [18] 62.8 µM | [20] 33.4 µM | [21] > 100 µM | [22] 42.1 µM | [23] 69.8 µM | [24] 37.4 µM | [25] 44.8 µM | [26] 60.3 µM | [27] 33.3 µM | [28] 88.9 µM | [29] > 100 µM | [30] 49.8 µM | [31] 63.1 µM | [32] 32.5 µM | [33] 43.4 µM | [34] 79.8 µM | [36] 44.8 µM | [37] 28.8 µM | [38] 26.5 µM | [39] 99.1 µM | [40] 56.8 µM | [41] > 100 µM | [42] > 100 µM | [43] 49.3 µM | [44] 41.4 µM | [45] > 100 µM | [46] 52.5 µM | [47] 80.7 µM | [48] > 100 µM | [49] 71.8 µM | [50] 14.9 µM | [51] 49.5 µM | [52] 51.8 µM | [53] 34.4 µM | [54] 49.7 µM | [55] > 100 µM | [56] 44.6 µM
